Source: patent EP0092073A1, “Magnesium salt of chenodeoxycholic acid and ursodeoxycholic acid, the process for its preparation, and therapeutic compositions which contain it as active principle” (SCHWARZ ITALIA S.p.A., priority 1982, dated 1983)
Read-outs that look alike come from different tables or passages of the source.

Assays:
[1] = test system: patients; assay: Controlled study in comparison with the free acids; tolerability in patients; type: in vivo; details: patients
[2] = test system: hampsters; assay: Action on the formation of cholesterol calculi in the gall-bladder (cholesterol-enriched diet, 80 days); type: in vivo; details: female hampsters; for % animals with calculi / % animals with crystals: cholesterol-enriched diet
Description: (§1) The investigations were carried out on hampsters (of female sex, but excluding those in a state of pregnancy) having an initial weight of 75-90 g. They were treated for 80 days with oral administration (by gastric probe) of MG-UCD (10-20 mg/kg/day), chenodeoxycholic acid (10-20 mg/kg/day) or ursodeoxycholic acid (10-20 mg/kg/day) (Tables 4 and 5). The animals were maintained for 80 consecutive days on a Nossan feed diet for rats, enriched with cholesterol (2 mg/g of food).
(§2) Each experimental group consisted of 10 units. After 80 days, the animals were narcotised with ethyl ether, and the bile was withdrawn, together with the calculi and crystals from the gall-bladder as described by Pearlman and coll. in Gastroenterology 77, 634 (1979).

[3] = test system: hampsters; assay: Bile lipid and bile acid contents of the bile (cholesterol-enriched diet, 80 days); type: in vivo
Description: as §1, §2
The bile acid, phospholipid, cholesterol, cholic acid, chenodeoxycholic acid, ursodeoxycholic acid, DCA (deoxycholic acid) and LCA (lithocholic acid) contents were evaluated in the bile by the methods described by Pearlman and coll. (see above).

[4] = Acute lethality and toxicity, oral administration (gastric probe); type: in vivo, Mus musculus; set-up: key to Toxic symptomatology Type: NN = no symptomatology; D = depression; details: in vivo, po; for mortality at 24 h / mortality at 168 h: oral; for mortality at 24 h: read-out: % mortality at following times after administration 24 h; for mortality at 168 h: read-out: % mortality at following times after administration 7 days; for LD50 at 168 h: probit method, read-out: LD50 (mg/kg with reliability limits) 7 days after treatment
Description: (§3) Unless otherwise specified, the research was carried out using: a) Mg-UCD capsules as such; b) the powdered contents of Mg-UCD capsules; CDCA (chenodeoxycholic acid) and UDCA (ursodeoxycholic acid) as pure substance which in all cases was partly dissolved and partly suspended under warm conditions (T = 30°C) in 10% gum arabic mucilage (so as to administer 10-40 ml of liquid per kg orally). In certain cases, namely in the experiments involving parenteral administration, the active principle of Mg-UCD, the chenodeoxycholic acid and ursodeoxycholic acid were dissolved in distilled water of slightly alkaline pH (5-10 ml/kg).
(§4) The generally acute lethality, toxicity and tolerability were determined by oral administration of the Mg-UCD (by gastric probe) in the Mus musculus, rat and dog. Animals of both sexes were used, none of which were pregnant. They were fasted for about 12 hours before treatment (but allowing them free access to water). The investigations were carried out using the Mg-UCD in powder form. Comparative investigations were carried out on the rat and Mus musculus using the active principle by endoperitoneal administration, and chenodeoxycholic acid and ursodeoxycholic acid by oral administration (using a gastric probe). Each dose was administered to 20 rats or Mus musculus (10 male and 10 female) and to eight dogs (4 male and 4 female). The animals were observed attentively during the 7 days following administration, and any lethality, toxic symptoms, disturbances, functional variations determinable with the eye, behaviour etc. were noted.
(§5) The LD50 was determined 7 days after administration using the probit method.

[5] = test system: rat; assay: as above; type: in vivo; set-up: key to Toxic symptomatology Type: NN = no symptomatology; D = depression; details: oral
Description: as §3, §4, §5

[6] = test system: Mus musculus; assay: as above; type: in vivo; set-up: key to Toxic symptomatology Type: NN = no symptomatology; D = depression; details: oral
Description: as §3, §4, §5

[7] = mouse, 2000 mg/kg, M. musculus F, 2000 mg/kg
[8] = mouse, 2000 mg/kg, M. musculus M, 2000 mg/kg
[9] = mouse, 4000 mg/kg, M. musculus F, 4000 mg/kg
[10] = mouse, 4000 mg/kg, M. musculus M, 4000 mg/kg
[11] = mouse, 8000 mg/kg, M. musculus F, 8000 mg/kg
[12] = mouse, 8000 mg/kg, M. musculus M, 8000 mg/kg
[13] = rat, 2000 mg/kg, Rat F, 2000 mg/kg
[14] = rat, 2000 mg/kg, Rat M, 2000 mg/kg
[15] = rat, 4000 mg/kg, Rat F, 4000 mg/kg
[16] = rat, 4000 mg/kg, Rat M, 4000 mg/kg
[17] = rat, 8000 mg/kg, Rat F, 8000 mg/kg
[18] = rat, 8000 mg/kg, Rat M, 8000 mg/kg

C[C@H](CCC(=O)O)[C@H]1CC[C@H]2[C@@H]3[C@H](O)C[C@@H]4C[C@H](O)CC[C@]4(C)[C@H]3CC[C@]12C [Chenodeoxycholic acid, 17β-(1-methyl-3-carboxypropyl)-ethiocholane-3α, 7α-diol]
side effects [1]: diarrhoea, and, in certain cases, transaminase increase | % animals with calculi ([2]; 10 mg/kg/day oral for 80 days): 50% | % animals with crystals ([2]; 10 mg/kg/day oral for 80 days): 30% | % animals with calculi ([2]; 20 mg/kg/day oral for 80 days): 0% | % animals with crystals ([2]; 20 mg/kg/day oral for 80 days): 0% | Body weight (g ± s.e.) after following days 80 ([2]; day 80, oral, 10 mg/kg/day): 148 ± 9 g | Bile acids (expressed as molar % ± s.e.) Cheno-deoxycholic acid ([3]; 10 mg/kg/day oral for 80 days): 42.1 ± 3.6 molar % | Bile acids (expressed as molar % ± s.e.) Cholic acid ([3]; 10 mg/kg/day oral for 80 days): 29.6 ± 2.6 molar % | Bile acids (expressed as molar % ± s.e.) DCA ([3]; 10 mg/kg/day oral for 80 days): 12.7 ± 0.6 molar % | Bile acids (expressed as molar % ± s.e.) LCA ([3]; 10 mg/kg/day oral for 80 days): 3.2 ± 0.1 molar % | Bile acids (expressed as molar % ± s.e.) Urso-deoxycholic acid ([3]; 10 mg/kg/day oral for 80 days): 6.6 ± 0.4 molar % | Bile lipids (expressed as molar % ± s.e.) Bile acids ([3]; 10 mg/kg/day oral for 80 days): 79.5 ± 5.6 molar % | Bile lipids (expressed as molar % ± s.e.) Cholesterol ([3]; 10 mg/kg/day oral for 80 days): 7.2 ± 0.2 molar % | Bile lipids (expressed as molar % ± s.e.) Phospho-lipids ([3]; 10 mg/kg/day oral for 80 days): 16.0 ± 1.8 molar % | Bile acids (expressed as molar % ± s.e.) Cheno-deoxycholic acid ([3]; 20 mg/kg/day oral for 80 days): 66.0 ± 4.7 molar % | Bile acids (expressed as molar % ± s.e.) Cholic acid ([3]; 20 mg/kg/day oral for 80 days): 18.7 ± 2.1 molar % | Bile acids (expressed as molar % ± s.e.) DCA ([3]; 20 mg/kg/day oral for 80 days): 10.4 ± 0.2 molar % | Bile acids (expressed as molar % ± s.e.) LCA ([3]; 20 mg/kg/day oral for 80 days): 3.4 ± 0.3 molar % | Bile acids (expressed as molar % ± s.e.) Urso-deoxycholic acid ([3]; 20 mg/kg/day oral for 80 days): 7.8 ± 0.3 molar % | Bile lipids (expressed as molar % ± s.e.) Bile acids ([3]; 20 mg/kg/day oral for 80 days): 80.2 ± 3.8 molar % | Bile lipids (expressed as molar % ± s.e.) Cholesterol ([3]; 20 mg/kg/day oral for 80 days): 5.9 ± 0.3 molar % | Bile lipids (expressed as molar % ± s.e.) Phospho-lipids ([3]; 20 mg/kg/day oral for 80 days): 15.8 ± 1.3 molar % | mortality at 24 h [4, 7]: 0% | mortality at 168 h [4, 7]: 0% | mortality at 24 h [4, 8]: 0% | mortality at 168 h [4, 8]: 0% | mortality at 24 h [4, 9]: 30% | mortality at 168 h [4, 9]: 30% | mortality at 24 h [4, 10]: 30% | mortality at 168 h [4, 10]: 30% | mortality at 24 h [4, 11]: 80% | mortality at 168 h [4, 11]: 80% | mortality at 24 h [4, 12]: 80% | mortality at 168 h [4, 12]: 80% | LD50 at 168 h ([4]; mouse, M. musculus F): 5280 mg/kg | LD50 at 168 h ([4]; mouse, M. musculus M): 5280 mg/kg | mortality at 24 h [4, 13]: 0% | mortality at 168 h [4, 13]: 0% | mortality at 24 h [4, 14]: 0% | mortality at 168 h [4, 14]: 0% | mortality at 24 h [4, 15]: 30% | mortality at 168 h [4, 15]: 30% | mortality at 24 h [4, 16]: 40% | mortality at 168 h [4, 16]: 40% | mortality at 24 h [4, 17]: 90% | mortality at 168 h [4, 17]: 90% | mortality at 24 h [4, 18]: 80% | mortality at 168 h [4, 18]: 80% | LD50 at 168 h ([4]; rat, Rat F): 4890 mg/kg | LD50 at 168 h ([4]; rat, Rat M): 4010 mg/kg | Toxic symptomatology Latency ([5]; Rat F, 2000 mg/kg): 5-10 min | Toxic symptomatology Type ([5]; Rat F, 2000 mg/kg): D | Toxic symptomatology Latency ([5]; Rat F, 4000 mg/kg): 5-10 min | Toxic symptomatology Type ([5]; Rat F, 4000 mg/kg): D | Toxic symptomatology Latency ([5]; Rat F, 8000 mg/kg): 5-10 min | Toxic symptomatology Type ([5]; Rat F, 8000 mg/kg): D | Toxic symptomatology Latency ([5]; Rat M, 2000 mg/kg): 5-10 min | Toxic symptomatology Type ([5]; Rat M, 2000 mg/kg): D | Toxic symptomatology Latency ([5]; Rat M, 4000 mg/kg): 5-10 min | Toxic symptomatology Type ([5]; Rat M, 4000 mg/kg): D | Toxic symptomatology Latency ([5]; Rat M, 8000 mg/kg): 5-10 min | Toxic symptomatology Type ([5]; Rat M, 8000 mg/kg): D | Toxic symptomatology Latency ([6]; M. musculus F, 2000 mg/kg): 5-10 min | Toxic symptomatology Type ([6]; M. musculus F, 2000 mg/kg): D | Toxic symptomatology Latency ([6]; M. musculus F, 4000 mg/kg): 5-10 min | Toxic symptomatology Type ([6]; M. musculus F, 4000 mg/kg): D | Toxic symptomatology Latency ([6]; M. musculus F, 8000 mg/kg): 5-10 min | Toxic symptomatology Type ([6]; M. musculus F, 8000 mg/kg): D | Toxic symptomatology Latency ([6]; M. musculus M, 2000 mg/kg): 5-10 min | Toxic symptomatology Type ([6]; M. musculus M, 2000 mg/kg): D | Toxic symptomatology Latency ([6]; M. musculus M, 4000 mg/kg): 5-10 min | Toxic symptomatology Type ([6]; M. musculus M, 4000 mg/kg): D | Toxic symptomatology Latency ([6]; M. musculus M, 8000 mg/kg): 5-10 min | Toxic symptomatology Type ([6]; M. musculus M, 8000 mg/kg): D
